In patent publication US20180250306A1, “ALDEHYDE CONJUGATES AND USES THEREOF” (ALDEYRA THERAPEUTICS, INC., priority 2015, published 2018):

How the values were obtained:
[1] = Preliminary single dose i.p. pharmacokinetics of NS2 and NS2-SSA adduct formation in wild type mice; type: in vivo, wild type C57B16 mice
Method: Mice were 41-46 days old on the day of treatment, and groups (n=3) were balanced for age, gender and starting weight (18±3 g). […] The results of this study informed the design of a subsequent 8-hour single dose study to measure additional biochemical outcomes (GHB and related metabolites) in both SSADH deficient mice and wild type littermates.
A preliminary assessment of single dose, i.p. pharmacokinetics (PK) was conducted in wild type C57B16 mice. Mice were 41-46 days old at the time of dosing. […] Three mice per timepoint were used for pharmacokinetic analysis. The study design is outlined in Table 6 below.
Homogenates (100 μL) were protein-precipitated with cold acetonitrile containing 0.1% formic acid (900 μL). Serum samples (25 μL) were protein-precipitated with 425 μL of cold acetonitrile containing 0.1% formic acid. Samples were centrifuged at 2,500×g then supernatant was transferred to a clean tube and dried under a constant heated flow of nitrogen (50° C.). Samples were reconstituted in 100 μL of mobile phase A (water with 0.1% formic acid, LC-MS/MS grade reagents).
These studies were performed only in wild-type C57B16 mice (n=21). […] The mice ranged in age from 41-46 days of age.

cardiac fibroblasts = assay: Fibroblast activation to myofibroblast phenotype, immunostaining for α-SMA and vimentin; type: cell-based, neonatal rats
Method: (§1) Thirty hearts from neonatal rats were minced and digested (Neonatal Cardiomyocyte Isolation System, LK003303, Worthington). After tissue digestion and cell dissociation, cell suspensions were plated into 35 mm dishes or onto coverslips in wells of 24-well plates. Serum-free DMEM was added to the cell suspensions and the cells allowed to adhere for 2 hrs. After two hours, the cell suspension was removed and the adherent cells were fed with DMEM containing 10% fetal bovine serum (FBS). Cells were maintained in DMEM+10% FBS for 24 hours before treatments. Treatment duration was 24 hours.
(§2) Cell samples were divided in to 2 groups, stimulated with H2O2 or not stimulated with H2O2. […] The cells that were treated with H2O2 contained a final concentration of 0.001% in the wells. Drug was dissolved in 9.5% Captisol®, to a stock concentration of 5 mg/ml. […] Cells were treated for 24 hours then either fixed for immunostaining or collected as lysates for Western Blot analysis.
After 24 hours of treatment, cells on cover slips were rinsed twice with PBS, fixed in 1% paraformaldehyde for 10 minutes then rinsed in PBS for immunostaining. Cells were permeabilized for 18 minutes in 0.1% Triton-X 100 in PBS, then rinsed three times in PBS for 15 minutes each. Following the rinses, cover slips were incubated in Image-IT FX Signal Enhancer (Invitrogen) to reduce background intensities in images. Subsequently, cells were washed three times 15 min with PBS, followed by one hour of blocking in 10% Normal Goat Serum Cells and 0.05% Triton-X 100, and then incubated overnight in 4° C. with primary antibodies diluted in PBS with 2% Normal Goat Serum and 0.05% Triton-X 100. Antibodies were applied at the following concentrations: Alpha-Smooth Muscle Actin 1:200 (V5228, Sigma-Aldrich), Vimentin 1:200 (V6630, Sigma-Aldrich) and NFκB 1:200 (C-20, Santa Cruz Biotech). Following overnight incubation, cover slips were brought to room temperature over 10 minutes and then rinsed in PBS for 15 min. Following 1 hour of incubation in the dark with secondary antibodies (1:100 in PBS, A-21127 and A-21136, Life Technologies), cover slips were rinsed 3 times for 15 min in PBS, incubated in the dark with DAPI (Invitrogen, 1:600) for 10 minutes, and then rinsed for 3 times in PBS. Cover slips were then mounted upside down on glass slides and examined using a Leica SP8 confocal microscope equipped with a 10× air lens. Images were taken as described and split into channels. Each channel was reviewed by eye to determine if NFκB was in the nucleus or in the cytosol.

α-SMA = assay: Western Blot of α-SMA in cardiac fibroblasts; type: cell-based, neonatal rats; settings: for α-SMA level (Western Blot): H2O2 stimulated cardiac fibroblasts
Method: as §1, §2
Whole cell lysates were used for Western blotting; nuclear and cytosolic fractions were not prepared. DMEM from cells plated in 35 mm plates was removed, the cells rinsed quickly in PBS, then incubated in 500 ul cold RIPA buffer for 20-30 minutes at 4° C. under gentle rocking. Following RIPA incubation, cells were scraped from the dish using cell scrapers and frozen at −80° C. overnight to increase cell lysing. Once thawed, cells were sonicated for 1 minute at 80% maximal power (Biologics Model 150 B/T). Samples were centrifuged at 13K for 10 min at 4° C. then supernatant was separated from pellet for analysis by gel electrophoresis. BCA protein analysis was run to determine total protein, samples normalized to 0.2 ug/uL, and then loaded onto Novex 8% Bolt gels. Gels were run for 35 min at 200 V in MOPS buffer or until the lower molecular weight band reached the bottom of the gel. Protein was then transferred to Hybond 0.45 uM Nitrocellulose (GE Healthcare) for 1 hour. Blots were blocked for 1 hr at room temperature in 5% BSA/TBSt. […]

NFκB = assay: Western Blot of NFκB levels in cardiac fibroblasts; type: cell-based, neonatal rats
Method: as §1, §2
(§3) Whole cell lysates were used for Western blotting; nuclear and cytosolic fractions were not prepared. DMEM from cells plated in 35 mm plates was removed, the cells rinsed quickly in PBS, then incubated in 500 ul cold RIPA buffer for 20-30 minutes at 4° C. under gentle rocking. Following RIPA incubation, cells were scraped from the dish using cell scrapers and frozen at −80° C. overnight to increase cell lysing. […]

JNK = assay: Western Blot of MAPK signaling pathways in cardiac fibroblasts; type: cell-based, neonatal rats; settings: NS2 treatment at any level; single blot
Method: as §1, §2, §3

[2] = test system: Primary rat cortical cultures; assay: LDH cytotoxicity assay, aldehyde-mediated cell death in neurons; type: cell-based
Method: Primary rat cortical cultures are placed in an incubator for 24 or 48 hours and treated with various concentrations of disclosed compounds. Then 20 μL of the culture media is removed for an LDH assay as described in Bergmeyer et al., Methods of Enzymatic Analysis, 3rd ed. (1983).

[3] = hamster cheek pouch radiation; cited from earlier work
[4] = wild type mice, single dose 10 mg/kg i.p.

CC(C)(O)c1nc2ccc(Cl)cc2cc1N [NS2, 2-(3-amino-6-chloroquinolin-2-yl)propan-2-ol]
concentration at 24 h ([1]; both sexes, C57B16 (wild type), mouse, serum, ip, wild type mice, single dose 10 mg/kg i.p., by 24 hours): < 50 nM
tolerability ([1]; mouse, in vivo, ip, 10 mg/kg): tolerated
brain penetration of NS2 [1, 4]: good brain penetration
order of NS2 pharmacokinetics [1, 4]: first-order pharmacokinetics
peak serum concentration of NS2 [1, 4]: 43.1 ± 15.4 µM
time to peak serum concentration of NS2 [1, 4]: 0.5 h
peak concentration of NS2 in brain ([1]; wild type mice, single dose 10 mg/kg i.p., brain): 52.4±22.9
peak concentration of NS2 in liver ([1]; wild type mice, single dose 10 mg/kg i.p., liver): 116±3.1
cell morphology (cardiac fibroblasts; 1 mM, cells stimulated with H2O2 or not): morphology of a non-activated fibroblast
α-SMA production and morphology change (immunostaining) (cardiac fibroblasts; H2O2 stimulated cells, 10 μM, 24 hours): little effect
α-SMA production (immunostaining) (cardiac fibroblasts; H2O2 stimulated cells, 100 μM, 24 hours): clear inhibition
cell shape of activated myofibroblasts (cardiac fibroblasts; unstimulated cells, 10 μM): does not change
α-SMA production (immunostaining) (cardiac fibroblasts; unstimulated cells, 10 μM, 24 hours): little effect
cell morphology (cardiac fibroblasts; unstimulated cells, 100 μM): morphology more like that of a non-activated fibroblast
α-SMA production (immunostaining) (cardiac fibroblasts; unstimulated cells, 100 μM, 24 hours): inhibited the production of α-SMA
α-SMA production (immunostaining) (cardiac fibroblasts; unstimulated cells, 1 mM, 24 hours): appeared to limit the production of α-SMA
α-SMA level (Western Blot) (α-SMA; 10 μM): no significant change
α-SMA level (Western Blot) (α-SMA; increased dose (100 μM, 1 mM), p<0.01): further α-SMA decreases, which were significant
α-SMA level (Western Blot) compared to control (α-SMA; non-stimulated cardiac fibroblasts, 10 μM, 100 μM, 1 mM): significant decreases
NFκB level (Western Blot, whole cell lysate) (NFκB; H2O2-stimulated cells, 100 μM or 1 mM): significant decreases
NFκB level (Western Blot, whole cell lysate) (NFκB; non-stimulated cells): significantly decreased
JNK-pJNK (Western Blot) (JNK): no changes
aldehyde-mediated cell death in neurons [2]: prevent
overall fibrosis at the site of injury over time [3]: decrease
rate of recovery from injury [3]: significant increase
